The values below are quoted from earlier work in patent publication US4407746A, “Cyclohexyl and phenyl substituted enkephalins” (G. D. Searle & Co., priority 1981, dated 1983).

One series concerns rat. Conditions: injected directly into the brain of the rat; Belluzi et al. 1976.
The test system of series [1] is brain opiate receptor sites. Conditions: partially purified brain opiate receptor sites; Bradberry et al. 1976.

Take methionine enkephalin: the analgesic activity result in the series on rat is listed as “weak, fleeting analgesic activity”. Also, the “binding to brain opiate receptor sites” value in series [1] was “binds sterospecifically”.
